Results from patent publication US7943184B2, “Process for preparing an extract from ivy leaves” (Engelhard Arzneimittel GmbH & Co. KG, priority 2003, dated 2011).

What was measured:
[1] = Absorption study by means of the biopharmaceutics classification system (BCS); assay type: in vitro ADME
Procedure: It was possible to show in an absorption study by means of the biopharmaceutics classification system (BCS) that α-hederin is to be attributed with a moderate absorption (10-90%). […] Absorption studies were carried out on rats for this purpose.

[2] = Absorption studies on rats: α-hederin plasma concentration after i.v. or oral administration of ivy leaf extracts; assay type: in vivo; conditions: all samples after i.v. or p.o. administration of extract A or B
Source text: The influence of administration of two different extracts on the plasma concentration of α-hederin was subsequently investigated. The change in the plasma concentration of α-hederin with a single administration compared with multiple administration of the extract and with different blood sampling times after administration was also investigated, as was the α-hederin absorption rate. Two extracts whose saponin distribution is shown in Table 1 below were selected for this purpose:
For intravenous administration, the required amount of extract was dissolved in 11% (m/m) ethanol, filtered and injected. It was aimed to administer a volume of 2 ml of extract solution (dose in each case [mg/kg of bodyweight]: 25). A blood sample was taken from the animals 5 minutes after the administration. About 2 ml of whole blood with added EDTA for anticoagulation were required for each sample.
Suspensions of the extracts in glycerol were prepared for oral administration. The animals were gavaged with about 2 ml of these suspensions (dose in each case [mg/kg of bodyweight]: 1000 and 166.66). 2 ml of blood were taken from each of the animals 1 and 3 hours after the last administration in each case.
The total saponin content takes account of the molar masses of the two constituents and is based on α-hederin. The total saponin content in extract A in this case was 9.8%, based on α-hederin. […]

[3] = tested on: smooth muscles; assay: Spasmolytic activity / relaxation of smooth muscles; conditions: via binding to β-adrenergic receptors; recent studies by the applicant

Structure (SMILES) | permeation through the membranes ([1]; same conditions as BCS absorption study) | Hederacoside C in plasma samples [2] | absorption (BCS) ([1]; biopharmaceutics classification system, moderate absorption) | relaxation of smooth muscles [3]
C[C@@H]1O[C@@H](O[C@H]2[C@H](O[C@H]3CC[C@@]4(C)[C@@H](CC[C@]5(C)[C@@H]4CC=C4[C@@H]6CC(C)(C)CC[C@]6(C(=O)O[C@@H]6O[C@H](CO[C@@H]7O[C@H](CO)[C@@H](O[C@@H]8O[C@@H](C)[C@H](O)[C@@H](O)[C@H]8O)[C@H](O)[C@H]7O)[C@@H](O)[C@H](O)[C@H]6O)CC[C@]45C)[C@]3(C)CO)OC[C@H](O)[C@@H]2O)[C@H](O)[C@H](O)[C@H]1O [hederacoside C] | did not permeate through the membranes | not detectable |  | 
C[C@@H]1O[C@@H](O[C@H]2[C@H](O[C@H]3CC[C@@]4(C)[C@@H](CC[C@]5(C)[C@@H]4CC=C4[C@@H]6CC(C)(C)CC[C@]6(C(=O)O)CC[C@]45C)[C@]3(C)CO)OC[C@H](O)[C@@H]2O)[C@H](O)[C@H](O)[C@H]1O [α-hederin] |  |  | 10-90% | causes relaxation of smooth muscles
